For one test, the system named is streptozotocin diabetic ddY mice. Briefly: streptozotocin-diabetic mice, diet with 0.1% compound (Example 21). The conditions noted are these: 0.1% in diet, one week, n=10; control 42.67 ± 4.61. The test is classed as in vivo, ddY male mice. The protocol:
Five-week-old ddY male mice were injected intraperitoneally with 130 mg/kg of streptozotocin. […] Each group was allowed to take the diet and drink water freely. One week later, the levels of glucose, insulin, free fatty acid in serum and glycogen in liver were measured.
Compound `CCOC(=O)COc1c(Cl)c(C)c(C=O)c(O)c1C/C=C(C)/C=C/C1(C)C(C)CCC(=O)C1C` (centres unmarked) [Example 1, 4-O-ethoxycarbonylmethylated ascochlorin] returned a serum immunoreactive insulin of 26.60 ± 2.78 μU/ml.

The same test, now with this note: 0.1% in diet, one week, n=10; control 44.29 ± 2.05.
`CCOC(=O)COc1c(Cl)c(C)c(C=O)c(O)c1C/C=C(C)/C=C/C1(C)C(C)CCC(=O)C1C` (centres unmarked) [Example 1, 4-O-ethoxycarbonylmethylated ascochlorin]: the “serum free fatty acid” value turned out to be 30.44 ± 1.22 mg/dL.

The same test, now with this note: 0.1% in diet, one week, n=10; control 337.7 ± 23.0.
The compound `CCOC(=O)COc1c(Cl)c(C)c(C=O)c(O)c1C/C=C(C)/C=C/C1(C)C(C)CCC(=O)C1C` (centres unmarked) [Example 1, 4-O-ethoxycarbonylmethylated ascochlorin] displayed a serum glucose of 250.6 ± 26.2 mg/dL.

Staying with this test, now noted: 0.1% in diet, one week; before feeding 25.5 ± 0.4; control after feeding 28.0 ± 0.5; ns.
On to `CCOC(=O)COc1c(Cl)c(C)c(C=O)c(O)c1C/C=C(C)/C=C/C1(C)C(C)CCC(=O)C1C` (centres unmarked) [Example 1, 4-O-ethoxycarbonylmethylated ascochlorin], for which the “body weight after feeding” value is recorded as 27.0 ± 0.6 g/mouse.

The same test, now with this note: vs control.
On to `CCOC(=O)COc1c(Cl)c(C)c(C=O)c(O)c1C/C=C(C)/C=C/C1(C)C(C)CCC(=O)C1C` (centres unmarked) [Example 1, 4-O-ethoxycarbonylmethylated ascochlorin], for which the “serum free fatty acid, change” value is on record as -31.3%; the “serum glucose, change” value is recorded as -25.8%; the “serum immunoreactive insulin, change” value is listed as -37.7%.

Test system in another test: not listed separately
Briefly: serum lipid and glucose in normal mice fed the compounds (Example 25). In kind it is in vivo, ddY male mice. The settings on record: 0.05% in diet, one week. The protocol:
Five-week-old ddY male mice were given for one week a diet (CE-2 from Nippon Crea Co., Ltd.) containing 0.05% of the compounds of the present invention indicated in Table 7. On the 7th day, the mice were sacrificed and the levels of lipid and glucose in their serum were measured.
As to `CC(/C=C/C1(C)C(C)CCC(=O)C1C)=C\Cc1c(O)c(C=O)c(C)c(Cl)c1OC(=O)COc1ccc(Cl)cc1` (centres unmarked) [Example 14, 4-O-(p-chlorophenoxy)acetyl ascochlorin], the “lipid level in serum (in words)” value was “could also reduce the lipid level in serum”.
With `CC(/C=C/C1(C)C(C)CCC(=O)C1C)=C\Cc1c(O)c(C=O)c(C)c(Cl)c1OC(=O)c1ccncc1` (centres unmarked) [Example 17, 4-O-isonicotinoyl ascochlorin], the “lipid level in serum (in words)” value was “could also reduce the lipid level in serum”.

Staying with this test, now noted: 0.05% in diet, one week, n=8; control 25.3 ± 1.62.
On to `CC(/C=C/C1(C)C(C)CCC(=O)C1C)=C\Cc1c(O)c(C=O)c(C)c(Cl)c1OC(=O)c1ccccn1` (centres unmarked) [Example 18, 4-O--picolinyl ascochlorin], for which the “free fatty acid in serum” value was found to be 23.5 ± 3.13 mg/dL.
For `CC(/C=C/C1(C)C(C)CCC(=O)C1C)=C\Cc1c(O)c(C=O)c(C)c(Cl)c1OC(=O)COc1ccc(Cl)cc1` (centres unmarked) [Example 14, 4-O-(p-chlorophenoxy)acetyl ascochlorin], the “free fatty acid in serum” value was determined as 24.9 ± 0.48 mg/dL.
On to `COc1ccc(C(=O)Oc2c(Cl)c(C)c(C=O)c(O)c2C/C=C(C)/C=C/C2(C)C(C)CCC(=O)C2C)cc1` (centres unmarked) [Example 15, 4-O--(p-methoxybenzoyl) ascochlorin], for which the “free fatty acid in serum” value worked out at 25.2 ± 1.89 mg/dL.
Turning to `CC(/C=C/C1(C)C(C)CCC(=O)C1C)=C\Cc1c(O)c(C=O)c(C)c(Cl)c1OC(=O)c1ccncc1` (centres unmarked) [Example 17, 4-O-isonicotinoyl ascochlorin], the “free fatty acid in serum” value amounted to 20.3 ± 0.77 mg/dL.

Staying with this test, now noted: 0.05% in diet, one week, n=8; control 134.7 ± 8.6.
For `CC(/C=C/C1(C)C(C)CCC(=O)C1C)=C\Cc1c(O)c(C=O)c(C)c(Cl)c1OC(=O)c1ccccn1` (centres unmarked) [Example 18, 4-O--picolinyl ascochlorin], the “neutral fat in serum” value worked out at 117.6 ± 6.8 mg/dL.
Still for that read-out and setting: with `CC(/C=C/C1(C)C(C)CCC(=O)C1C)=C\Cc1c(O)c(C=O)c(C)c(Cl)c1OC(=O)COc1ccc(Cl)cc1` (centres unmarked) [Example 14, 4-O-(p-chlorophenoxy)acetyl ascochlorin] the figure was 99.4 ± 9.4 mg/dL; with `COc1ccc(C(=O)Oc2c(Cl)c(C)c(C=O)c(O)c2C/C=C(C)/C=C/C2(C)C(C)CCC(=O)C2C)cc1` (centres unmarked) [Example 15, 4-O--(p-methoxybenzoyl) ascochlorin], 141.4 ± 21.3 mg/dL; with `CC(/C=C/C1(C)C(C)CCC(=O)C1C)=C\Cc1c(O)c(C=O)c(C)c(Cl)c1OC(=O)c1ccncc1` (centres unmarked) [Example 17, 4-O-isonicotinoyl ascochlorin], 116.1 ± 13.8 mg/dL.

The test is the same for the next values; noted with them: 0.05% in diet, one week, n=8; control 135.9 ± 4.8.
`CC(/C=C/C1(C)C(C)CCC(=O)C1C)=C\Cc1c(O)c(C=O)c(C)c(Cl)c1OC(=O)c1ccccn1` (centres unmarked) [Example 18, 4-O--picolinyl ascochlorin]: the “total cholesterol in serum” value came out at 138.4 ± 3.1 mg/dL.
The same measure, in the same setting: with `CC(/C=C/C1(C)C(C)CCC(=O)C1C)=C\Cc1c(O)c(C=O)c(C)c(Cl)c1OC(=O)COc1ccc(Cl)cc1` (centres unmarked) [Example 14, 4-O-(p-chlorophenoxy)acetyl ascochlorin] the figure was 115.6 ± 9.8 mg/dL.
Same read-out and setting: to `COc1ccc(C(=O)Oc2c(Cl)c(C)c(C=O)c(O)c2C/C=C(C)/C=C/C2(C)C(C)CCC(=O)C2C)cc1` (centres unmarked) [Example 15, 4-O--(p-methoxybenzoyl) ascochlorin] belongs 137.9 ± 4.1 mg/dL.
For the compound `CC(/C=C/C1(C)C(C)CCC(=O)C1C)=C\Cc1c(O)c(C=O)c(C)c(Cl)c1OC(=O)c1ccncc1` (centres unmarked) [Example 17, 4-O-isonicotinoyl ascochlorin], the “total cholesterol in serum” value was 113.5 ± 7.8 mg/dL.

Staying with this test, now noted: 0.05% in diet, one week, n=8; control 293.0 ± 13.3.
For the compound `CC(/C=C/C1(C)C(C)CCC(=O)C1C)=C\Cc1c(O)c(C=O)c(C)c(Cl)c1OC(=O)c1ccccn1` (centres unmarked) [Example 18, 4-O--picolinyl ascochlorin], the serum glucose was found to be 247.7 ± 9.0 mg/dL.
Still for that read-out and setting: with `CC(/C=C/C1(C)C(C)CCC(=O)C1C)=C\Cc1c(O)c(C=O)c(C)c(Cl)c1OC(=O)COc1ccc(Cl)cc1` (centres unmarked) [Example 14, 4-O-(p-chlorophenoxy)acetyl ascochlorin] the figure was 209 ± 8.9 mg/dL; with `COc1ccc(C(=O)Oc2c(Cl)c(C)c(C=O)c(O)c2C/C=C(C)/C=C/C2(C)C(C)CCC(=O)C2C)cc1` (centres unmarked) [Example 15, 4-O--(p-methoxybenzoyl) ascochlorin], 199.3 ± 8.6 mg/dL.
Still for that read-out and setting: with `CC(/C=C/C1(C)C(C)CCC(=O)C1C)=C\Cc1c(O)c(C=O)c(C)c(Cl)c1OC(=O)c1ccncc1` (centres unmarked) [Example 17, 4-O-isonicotinoyl ascochlorin] the figure was 191.6 ± 13.2 mg/dL.

The test is the same for the next values; noted with them: vs control.
For the compound `CC(/C=C/C1(C)C(C)CCC(=O)C1C)=C\Cc1c(O)c(C=O)c(C)c(Cl)c1OC(=O)c1ccccn1` (centres unmarked) [Example 18, 4-O--picolinyl ascochlorin], the “free fatty acid in serum, change” value was -7.1%; the “neutral fat in serum, change” value is given as -12.7%; the “serum glucose, change” value was -15.5%; the “total cholesterol in serum, change” value is on record as “+1.8%”.
In the case of `CC(/C=C/C1(C)C(C)CCC(=O)C1C)=C\Cc1c(O)c(C=O)c(C)c(Cl)c1OC(=O)COc1ccc(Cl)cc1` (centres unmarked) [Example 14, 4-O-(p-chlorophenoxy)acetyl ascochlorin], the “free fatty acid in serum, change” value was -1.6%; the “neutral fat in serum, change” value is recorded as -26.2%; the “serum glucose, change” value is recorded as -28.7%; the “total cholesterol in serum, change” value is reported as -14.8%.
With `COc1ccc(C(=O)Oc2c(Cl)c(C)c(C=O)c(O)c2C/C=C(C)/C=C/C2(C)C(C)CCC(=O)C2C)cc1` (centres unmarked) [Example 15, 4-O--(p-methoxybenzoyl) ascochlorin], the “free fatty acid in serum, change” value is -0.4%; the “neutral fat in serum, change” value is listed as “+4.9%”; the “serum glucose, change” value was -31.9%; the “total cholesterol in serum, change” value is given as “+1.4%”.
Take `CC(/C=C/C1(C)C(C)CCC(=O)C1C)=C\Cc1c(O)c(C=O)c(C)c(Cl)c1OC(=O)c1ccncc1` (centres unmarked) [Example 17, 4-O-isonicotinoyl ascochlorin]: the “free fatty acid in serum, change” value is on record as -19.8%; the “serum glucose, change” value is -34.6%; the “total cholesterol in serum, change” value was -16.5%.

Test system in another test: not listed separately
Put plainly: plasma glucose and cholesterol in normal mice fed the compounds (Example 19). In kind it is in vivo, ddY male mice. The conditions noted are these: 0.1% in diet, one week, n=10; control 135.9 ± 4.8. The procedure:
Five-week-old ddY male mice (n=10) were given for one week a diet (CE-2 from Nippon Crea Co., Ltd.) containing 0.1% of the sample compounds of the present invention indicated in Table 1. Blood was then withdrawn from the heart and the glucose and cholesterol levels in plasma were measured.
For the compound `CCOC(=O)COc1c(Cl)c(C)c(C=O)c(O)c1C/C=C(C)/C=C/C1(C)C(C)CCC(=O)C1C` (centres unmarked) [Example 1, 4-O-ethoxycarbonylmethylated ascochlorin], the “total cholesterol in plasma” value turned out to be 105.7 ± 3.0 mg/dL.

Staying with this test, now noted: 0.1% in diet, one week, n=10; control 271.6 ± 0.4.
`CCOC(=O)COc1c(Cl)c(C)c(C=O)c(O)c1C/C=C(C)/C=C/C1(C)C(C)CCC(=O)C1C` (centres unmarked) [Example 1, 4-O-ethoxycarbonylmethylated ascochlorin] came in with a plasma glucose of 208.3 ± 13.1 mg/dL.

A further test relates to Ehrlich ascites tumor. Briefly: life span of mice with Ehrlich ascites tumor (Example 22). The settings on record: 2 mg i.p. once a day for 7 days, n=8; control 15.5 ± 2.12. The test is classed as in vivo, ddY male mice. The procedure: 10^6 Cells of Ehrlich ascites tumor were transplanted in five-week-old ddY male mice and from the 24th hour onward, they were injected intraperitoneally the compounds indicated in Table 4 of the present invention once a day for 7 consecutive days. Each injection contained 2 mg of the test compounds. The efficacy of the compounds is indicated in Table 4 in terms of their life span.
The compound `CCOC(=O)COc1c(Cl)c(C)c(C=O)c(O)c1C/C=C(C)/C=C/C1(C)C(C)CCC(=O)C1C` (centres unmarked) [Example 1, 4-O-ethoxycarbonylmethylated ascochlorin] yielded a Days survived of 19.3 ± 5.77 days.

The test is the same for the next values; noted with them: 2 mg i.p. once a day for 7 days; control 100.
On to `CCOC(=O)COc1c(Cl)c(C)c(C=O)c(O)c1C/C=C(C)/C=C/C1(C)C(C)CCC(=O)C1C` (centres unmarked) [Example 1, 4-O-ethoxycarbonylmethylated ascochlorin], for which the “T/0 (%)” value was 125%.

Values taken from US4500544A, “Ascochlorin derivatives, and pharmaceutical composition containing the same” (Chugai Seiyaku Kabushiki Kaisha, priority 1981, dated 1985).
